Patent US20040268437A1, “Method for biosynthesizing the serotonin derivatives in plants” (CHONNAM NATIONAL UNIVERSITY, priority 2003, published 2004)
Entries after “also recorded” stand apart in the source; their conditions may differ.

How the values were obtained:
[1] = system: Hot pepper (Variety: Pungcheon); assay: Serotonin sprayed on hot pepper sarcocarps; serotonin derivative content by HPLC; format: in vivo
Procedure: Hot pepper (Variety: Pungcheon) was treated with serotonin to investigate biosynthesis of serotonin derivatives.
Serotonin solution (prepared by dissolving serotonin in water to make 1 mM concentration) was sprayed on sarcocarps of hot pepper at the rate of 10,000 L/ha. 72 hours after spraying, sarcocarps were taken to investigate the content of serotonin derivatives, for which the same method in the Example 1 was used. Sarcocarps of hot pepper not treated with serotonin were used as a control.

hot pepper THT enzyme = assay: In vitro enzyme reaction of purified hot pepper THT with serotonin, product by HPLC; format: biochemical, hot pepper (Capsicum annuum)
Procedure: In order to confirm whether hot pepper THT enzyme could use serotonin as an amine substrate, hot pepper THT protein, in which 6 histidines were attached on carboxy-terminal, was purified by affinity chromatography (Back et al., Plant Cell Physiol. 42, 475-481, 2001) and used for the experiment. Particularly, 1 μg of the purified hot pepper THT enzyme, 1 mM of feruloyl-CoA (Sigma-Aldrich, Korea) and 10 mM of serotonin (Sigma-Aldrich, Korea) were mixed together, followed by an enzyme reaction at 30° C. for 10 minutes. Upon completing the reaction, the reaction product was analyzed by HPLC.

[2] = sarcocarps of hot pepper, 1 mM serotonin sprayed, 10,000 L/ha, 72 hours

## NCCc1c[nH]c2ccc(O)cc12 [Serotonin, serotonin]
[1]; sarcocarps of hot pepper treated with serotonin, in words
  Serotonin derivatives detected: a large amount; also recorded: detected a lot
[1]; [2]
  Content of serotonin derivatives: Coumaroyl Serotonin: 1538 ng/1 g sarcocarps
  Content of serotonin derivatives: Feruloyl serotonin: 1028 ng/1 g sarcocarps
  Content of serotonin derivatives: Total content: 2566 ng/1 g sarcocarps
Hot pepper THT enzyme; 1 μg THT, 1 mM feruloyl-CoA, 10 mM serotonin, 30° C., 10 minutes
  Serotonin used as amine substrate, product feruloylserotonin: uses serotonin as an amine substrate; also recorded: biosynthesis of feruloylserotonin was confirmed
Hot pepper THT enzyme; coumaroyl-CoA and serotonin as substrates (not shown)
  Serotonin used as amine substrate, product coumaroylserotonin: synthesized coumaroylserotonin; also recorded: biosynthesis of coumaroylserotonin by hot pepper THT enzyme was also confirmed
